Experimental data from patent publication US20050197350A1, “Novel quinoline, tetrahydroquinazoline, and pyrimidine derivatives and methods of treatment related to the use thereof” (TAISHO PHARMACEUTICAL CO., LTD., priority 2003, published 2005).

What follows are molecules tested on MCH receptors (assay: MCH receptor activity class (method not given)). Conditions: class by percent of control at 10^-7 M or IC50.
In the case of `CN(C)c1cc(N[C@H]2CC[C@@H](NC(=O)[C@H](CCCCNC(=O)c3ccccc3)NC(=O)c3ccccc3)CC2)nc2ccccc12` (relative stereo) [compound 704], the class is reported as 3 (Class 3 The value of percent of control at 10^−7 M was more than 60% or the value of IC50 was more than 200 nM.). For `CC(C(=O)N[C@H]1CC[C@@H](Nc2cc(N(C)C)c3ccccc3n2)CC1)c1ccc(-c2ccccc2)c(F)c1` (relative stereo) [compound 708], the class was 3 (Class 3 The value of percent of control at 10^−7 M was more than 60% or the value of IC50 was more than 200 nM.). For `CC(C(=O)N[C@H]1CC[C@@H](Nc2cc(N(C)C)c3ccccc3n2)CC1)c1ccc(N2Cc3ccccc3C2=O)cc1` (relative stereo) [compound 710], the class was 3 (Class 3 The value of percent of control at 10^−7 M was more than 60% or the value of IC50 was more than 200 nM.). `COc1ccc2c(c1)C(CC(=O)N[C@H]1CC[C@@H](Nc3cc(N(C)C)c4ccccc4n3)CC1)CC2=O` (relative stereo) [compound 713] was tested, and the class was 3 (Class 3 The value of percent of control at 10^−7 M was more than 60% or the value of IC50 was more than 200 nM.). In the case of `CN(C)c1cc(N[C@H]2CC[C@@H](NC(=O)C(CC(=O)c3ccccc3)c3c[nH]c4ccccc34)CC2)nc2ccccc12` (relative stereo) [compound 716, N-(cis-4-{[4-(dimethylamino)quinolin-2-yl]amino}cyclohexyl)-2-(1H-indol-3-yl)-4-oxo-4-phenylbutanamide], the class is reported as 2 (Class 2: The value of percent of control at 10^−7 M was from 40% to 60% or the value of IC′50 was from 50 nM to 200 nM.). `CN(C)c1cc(N[C@H]2CC[C@@H](NC(=O)C(CC(=O)c3ccc(Br)cc3)c3c[nH]c4ccccc34)CC2)nc2ccccc12` (relative stereo) [compound 717] was tested, and the class was 3 (Class 3 The value of percent of control at 10^−7 M was more than 60% or the value of IC50 was more than 200 nM.). With `CCc1cccc2c(C(CC(=O)c3ccc(C(C)(C)C)cc3)C(=O)N[C@H]3CC[C@@H](Nc4cc(N(C)C)c5ccccc5n4)CC3)c[nH]c12` (relative stereo) [compound 720] the class was 3 (Class 3 The value of percent of control at 10^−7 M was more than 60% or the value of IC50 was more than 200 nM.). For `CN(C)c1cc(N[C@H]2CC[C@@H](NC(=O)C(CC(=O)c3ccc(C(C)(C)C)cc3)c3cn(C)c4ccccc34)CC2)nc2ccccc12` (relative stereo) [compound 721], the class was 3 (Class 3 The value of percent of control at 10^−7 M was more than 60% or the value of IC50 was more than 200 nM.). In the case of `Cc1ccc(C(=O)CC(C(=O)N[C@H]2CC[C@@H](Nc3cc(N(C)C)c4ccccc4n3)CC2)c2cn(C)c3ccccc23)cc1` (relative stereo) [compound 722], the class is reported as 3 (Class 3 The value of percent of control at 10^−7 M was more than 60% or the value of IC50 was more than 200 nM.). For `CCCN(CCC)C(=O)[C@H](CCC(=O)N[C@H]1CC[C@@H](Nc2cc(N(C)C)c3ccccc3n2)CC1)NC(=O)c1ccccc1` (relative stereo) [compound 730], the class was 3 (Class 3 The value of percent of control at 10^−7 M was more than 60% or the value of IC50 was more than 200 nM.). For `CN(C)c1cc(N[C@H]2CC[C@@H](NC(=O)C(CC(=O)c3ccc(Cl)cc3)SCc3ccc(Cl)cc3)CC2)nc2ccccc12` (relative stereo) [compound 741], the class was 3 (Class 3 The value of percent of control at 10^−7 M was more than 60% or the value of IC50 was more than 200 nM.). With `Cc1ccc(C(=O)CC(SCc2ccc(Cl)cc2)C(=O)N[C@H]2CC[C@@H](Nc3cc(N(C)C)c4ccccc4n3)CC2)cc1` (relative stereo) [compound 742] the class was 3 (Class 3 The value of percent of control at 10^−7 M was more than 60% or the value of IC50 was more than 200 nM.). `CC1=C(CC(=O)N[C@H]2CC[C@@H](Nc3cc(N(C)C)c4ccccc4n3)CC2)c2cc(F)ccc2/C1=C/c1ccc([S+](C)[O-])cc1` (relative stereo) [compound 743] was tested, and the class was 3 (Class 3 The value of percent of control at 10^−7 M was more than 60% or the value of IC50 was more than 200 nM.). `CC(C(=O)N[C@H]1CC[C@@H](Nc2cc(N(C)C)c3ccccc3n2)CC1)c1ccc(C(=O)c2cccs2)cc1` (relative stereo) [compound 744] was tested, and the class was 3 (Class 3 The value of percent of control at 10^−7 M was more than 60% or the value of IC50 was more than 200 nM.). In the case of `COC(C(=O)N[C@H]1CC[C@@H](Nc2cc(N(C)C)c3ccccc3n2)CC1)c1ccccc1` (relative stereo) [compound 777], the class is reported as 3 (Class 3 The value of percent of control at 10^−7 M was more than 60% or the value of IC50 was more than 200 nM.). With `CN(C)c1cc(N[C@H]2CC[C@@H](NC(=O)C3CCc4ccccc4C3)CC2)nc2ccccc12` (relative stereo) [compound 778] the class was 3 (Class 3 The value of percent of control at 10^−7 M was more than 60% or the value of IC50 was more than 200 nM.). `CN(C)c1cc(N[C@H]2CC[C@@H](CNC(=O)C(Cc3ccccc3)c3ccccc3)CC2)nc2ccccc12` (relative stereo) [compound 793] was tested, and the class was 3 (Class 3 The value of percent of control at 10^−7 M was more than 60% or the value of IC50 was more than 200 nM.). With `CN(C)c1cc(N[C@H]2CC[C@@H](CNC(=O)C3CC(=O)c4ccccc43)CC2)nc2ccccc12` (relative stereo) [compound 798] the class was 3 (Class 3 The value of percent of control at 10^−7 M was more than 60% or the value of IC50 was more than 200 nM.). `CCOc1ccc(C(=O)CC(C(=O)NC[C@H]2CC[C@@H](Nc3cc(N(C)C)c4ccccc4n3)CC2)C2C(=O)N(c3ccccc3)N=C2C)cc1` (relative stereo) [compound 807] was tested, and the class was 3 (Class 3 The value of percent of control at 10^−7 M was more than 60% or the value of IC50 was more than 200 nM.). With `CN(C)c1ccnc(N[C@H]2CC[C@@H](NC(=O)C(Cc3ccccc3)c3ccccc3)CC2)n1` (relative stereo) [compound 817] the class was 3 (Class 3 The value of percent of control at 10^−7 M was more than 60% or the value of IC50 was more than 200 nM.). With `CN(C)c1ccnc(N[C@H]2CC[C@@H](NC(=O)C3CC(=O)c4ccccc43)CC2)n1` (relative stereo) [compound 823] the class was 3 (Class 3 The value of percent of control at 10^−7 M was more than 60% or the value of IC50 was more than 200 nM.). For `CN(C)c1ccnc(N[C@H]2CC[C@@H](NC(=O)[C@H](CCCCNC(=O)c3ccccc3)NC(=O)c3ccccc3)CC2)n1` (relative stereo) [compound 843], the class was 2 (Class 2: The value of percent of control at 10^−7 M was from 40% to 60% or the value of IC′50 was from 50 nM to 200 nM.). In the case of `CC(C(=O)N[C@H]1CC[C@@H](Nc2nccc(N(C)C)n2)CC1)c1ccc(-c2ccccc2)c(F)c1` (relative stereo) [compound 847], the class is reported as 3 (Class 3 The value of percent of control at 10^−7 M was more than 60% or the value of IC50 was more than 200 nM.). In the case of `CC(C(=O)N[C@H]1CC[C@@H](Nc2nccc(N(C)C)n2)CC1)c1ccc(N2Cc3ccccc3C2=O)cc1` (relative stereo) [compound 849], the class is reported as 3 (Class 3 The value of percent of control at 10^−7 M was more than 60% or the value of IC50 was more than 200 nM.). `COc1ccc2c(c1)C(CC(=O)N[C@H]1CC[C@@H](Nc3nccc(N(C)C)n3)CC1)CC2=O` (relative stereo) [compound 852] was tested, and the class was 3 (Class 3 The value of percent of control at 10^−7 M was more than 60% or the value of IC50 was more than 200 nM.). With `CN(C)c1ccnc(N[C@H]2CC[C@@H](NC(=O)C(CC(=O)c3ccccc3)c3c[nH]c4ccccc34)CC2)n1` (relative stereo) [compound 855, N-(cis-4-{[4-(dimethylamino)pyrimidin-2-yl]amino}cyclohexyl)-2-(1H-indol-3-yl)-4-oxo-4-phenylbutanamide] the class was 1 (Class 1: The value of percent of control at 10^−7 M was less than 40% or the value of IC50 was less than 50 nM.). With `CN(C)c1ccnc(N[C@H]2CC[C@@H](NC(=O)C(CC(=O)c3ccc(Br)cc3)c3c[nH]c4ccccc34)CC2)n1` (relative stereo) [compound 856] the class was 2 (Class 2: The value of percent of control at 10^−7 M was from 40% to 60% or the value of IC′50 was from 50 nM to 200 nM.). For `CCc1cccc2c(C(CC(=O)c3ccc(C(C)(C)C)cc3)C(=O)N[C@H]3CC[C@@H](Nc4nccc(N(C)C)n4)CC3)c[nH]c12` (relative stereo) [compound 860], the class was 3 (Class 3 The value of percent of control at 10^−7 M was more than 60% or the value of IC50 was more than 200 nM.). `CN(C)c1ccnc(N[C@H]2CC[C@@H](NC(=O)C(CC(=O)c3ccc(C(C)(C)C)cc3)c3cn(C)c4ccccc34)CC2)n1` (relative stereo) [compound 861] was tested, and the class was 3 (Class 3 The value of percent of control at 10^−7 M was more than 60% or the value of IC50 was more than 200 nM.). In the case of `Cc1ccc(C(=O)CC(C(=O)N[C@H]2CC[C@@H](Nc3nccc(N(C)C)n3)CC2)c2cn(C)c3ccccc23)cc1` (relative stereo) [compound 862, N-(cis-4-{[4-(dimethylamino)pyrimidin-2-yl]amino}cyclohexyl)-2-(1-methyl-1H-indol-3-yl)-4-(4-methylphenyl)-4-oxobutanamide], the class is reported as 1 (Class 1: The value of percent of control at 10^−7 M was less than 40% or the value of IC50 was less than 50 nM.). For `CCCN(CCC)C(=O)[C@H](CCC(=O)N[C@H]1CC[C@@H](Nc2nccc(N(C)C)n2)CC1)NC(=O)c1ccccc1` (relative stereo) [compound 870], the class was 2 (Class 2: The value of percent of control at 10^−7 M was from 40% to 60% or the value of IC′50 was from 50 nM to 200 nM.). With `CN(C)c1ccnc(N[C@H]2CC[C@@H](NC(=O)C(CC(=O)c3ccc(Cl)cc3)SCc3ccc(Cl)cc3)CC2)n1` (relative stereo) [compound 881] the class was 3 (Class 3 The value of percent of control at 10^−7 M was more than 60% or the value of IC50 was more than 200 nM.). In the case of `Cc1ccc(C(=O)CC(SCc2ccc(Cl)cc2)C(=O)N[C@H]2CC[C@@H](Nc3nccc(N(C)C)n3)CC2)cc1` (relative stereo) [compound 882], the class is reported as 3 (Class 3 The value of percent of control at 10^−7 M was more than 60% or the value of IC50 was more than 200 nM.).
